These results are taken from ChEMBL document CHEMBL1121693 (1981).

What all share (format): functional
The species named for test [1] is Mus musculus.
The species named for test [2] is Mus musculus. This is another data set of the same source.
Test [3] is filed under the species Mus musculus. This is another data set of the same source.

Turning to `c1ccc(C2(N3CCCCC3)CCCCC2)cc1` [PHENCYCLIDINE], the results for the No. of mice in the test filed under Mus musculus [1], in the test filed under Mus musculus [2] and in the test listed under Mus musculus [3] were 0, 4 and 0, respectively.
